Results as given in patent US20150238490A1 (Pharmacyclics, Inc., priority 2014, published 2015).
Entries after “also recorded” stand apart in the source; their conditions may differ.

Legend:
CLL patients = details: plasma, previous studies; cited from earlier work
[1] = tested on: DB cell line (GCB subtype DLBCL); assay: CCL3/CCL4 secretion by DLBCL cell line, supernatant ELISA; format: cell-based, human; details: 1 μM ibrutinib, supernatant after 24 h
Protocol: (§1) For BCR stimulation, culture medium was supplemented with 10 μg/mL anti-IgM (polyclonal goat F(ab′)2 fragments to human IgM, MP Biomedicals) for the indicated time periods.
(§2) All DLBCL cell lines were grown in RPMI 1640 medium (Hyclone) supplemented with glutamine, beta-mercaptoethanol, penicillin/streptomycin and 10% fetal bovine serum, except for OCI-Ly3 and OCI-Ly10, which were maintained in Iscove's modified Dulbecco's medium (Gibco) supplemented with beta-mercaptoethanol, penicillin/streptomycin and 20% heparinized human plasma. All cell lines were grown in a humidified 5% CO2 incubator at 37° C. DLBCL cell lines included TMD8, HBL-1, OCI-Ly10, OCI-Ly3, DB and OCI-Ly19.
(§3) Cell culture supernatant samples from DLBCL cell lines were used after 24 h for the measurement of CCL3 and CCL4 levels for quantification by ELISA using Quantikine Kits (R&D Systems). The absorbance was recorded by a microplate reader (ELx808, Bio-Tek Instruments), and data collection and analysis were performed using Gen5 software Version 1.08 (Bio-Tek Instruments).
(§4) Peripheral blood serum samples were obtained from the tissue bank of the Department of Lymphoma and Myeloma at MDACC or from the University of Nebraska Medical Center. All serum samples were aliquoted and stored at the time of initial referral to each institution. Serum and cell culture supernatant CCL3 and CCL4 levels were quantified by ELISA using Quantikine Kits (R&D Systems) and was conducted at MDACC (Sivina M, Hartmann E, Kipps T J, et al. “CCL3 (MIP-1alpha) plasma levels and the risk for disease progression in chronic lymphocytic leukemia.” Blood. 2011; 117(5):1662-1669.). The absorbance was recorded on a microplate reader (ELx808, Bio-Tek Instruments), and data collection and analysis were performed using Gen5 software Version 1.08 (Bio-Tek Instruments).

[2] = tested on: HBL-1 cell line (ABC subtype DLBCL); assay: as above; format: cell-based, human; details: for mean supernatant concentration of CCL3: 24 h
Protocol: as §1, §2, §3, §4

[3] = tested on: OCI-Ly10 cell line (ABC subtype DLBCL); assay: as above; format: cell-based, human; details: 1 μM ibrutinib, supernatant after 24 h
Protocol: as §1, §2, §3, §4

[4] = tested on: OCI-Ly19 cell line (GCB subtype DLBCL); assay: as above; format: cell-based, human; details: 1 μM ibrutinib, supernatant after 24 h
Protocol: as §1, §2, §3, §4

[5] = tested on: OCI-Ly3 cell line (ABC subtype DLBCL, CARD11 mutation); assay: as above; format: cell-based, human; details: 1 μM ibrutinib, supernatant after 24 h
Protocol: as §1, §2, §3, §4

[6] = tested on: TMD8 cell line (ABC subtype DLBCL); assay: as above; format: cell-based, human
Protocol: as §1, §2, §3, §4

DLBCL patients = assay: Serum CCL3 and CCL4 pre- and post-treatment in patients with DLBCL; format: in vivo, human; details: in most patients
Description: The study included 102 patients from MD Anderson Cancer Center (MDACC) with newly diagnosed DLBCL between January 2009 and February 2011 (MDA test cohort). In addition, a second set of 51 patients from MDACC with newly diagnosed DLBCL was included for validation analysis (MDA validation cohort). Nineteen patients with newly diagnosed DLBCL from the University of Nebraska were also included in the correlation analysis between serum CCL3/CCL4 levels and GCB vs. non-GCB subtype (Nebraska cohort). […] Demographics and other clinical parameters for both MDACC test and validation cohort were obtained at the time of initial referral to MDACC. DLBCL diagnosis was established by institutional pathologists according to the WHO classification. Immunophenotypic classification (GCB vs. non-GCB subtype) of DLBCL was determined by Hans criteria. […]
Peripheral blood serum samples were obtained from the tissue bank of the Department of Lymphoma and Myeloma at MDACC or from the University of Nebraska Medical Center. […] Serum and cell culture supernatant CCL3 and CCL4 levels were quantified by ELISA using Quantikine Kits (R&D Systems) and was conducted at MDACC (Sivina M, Hartmann E, Kipps T J, et al. “CCL3 (MIP-1alpha) plasma levels and the risk for disease progression in chronic lymphocytic leukemia.” Blood. 2011; 117(5):1662-1669.). […]

[7] = 1 μM ibrutinib, alone or with 10 μg/mL anti-IgM, supernatant after 24 h
[8] = ibrutinib titration (3.1-1000 nM) in combination with 10 μg αIgM

Structure (SMILES)	elevated CCL3 and CCL4 levels after pharmacologic inhibition of BCR signaling (CLL patients)	CCL3 level after ibrutinib treatment [1]	CCL4 level after ibrutinib treatment [1]	mean supernatant concentration of CCL3 ([2]; 1 μM ibrutinib alone (unstimulated cells), baseline 1705.5 pg/mL)	mean supernatant concentration of CCL3 ([2]; 1 μM ibrutinib in combination with 10 μg/mL anti-IgM)	CCL3 level after ibrutinib treatment [2, 7]	CCL4 level after ibrutinib treatment [2, 7]	ibrutinib concentration resulting in the lowest CCL3 level [2, 8] [nM]	ibrutinib concentration resulting in the lowest CCL4 level [2, 8] [nM]	CCL3 level after ibrutinib treatment [3]	CCL4 level after ibrutinib treatment [3]	CCL3 level after ibrutinib treatment [4]	CCL4 level after ibrutinib treatment [4]	CCL3 level after ibrutinib treatment [5]	CCL4 level after ibrutinib treatment [5]	CCL3 level after ibrutinib treatment [6, 7]	CCL4 level after ibrutinib treatment [6, 7]	CCL3 level after BCR stimulation, ibrutinib titration ([6]; 1000 nM ibrutinib with 10 μg αIgM, decreased level maintained at 500 nM and 100 nM)	CCL4 level after BCR stimulation, ibrutinib titration ([6]; 1000 nM ibrutinib with 10 μg αIgM, decreased level maintained at 500 nM, 100 nM and 50 nM)	high concentrations of serum CCL3 and CCL4 after therapy (DLBCL patients)
CC[C@H](Nc1ncnc2[nH]cnc12)c1nc2cccc(F)c2c(=O)n1-c1ccccc1 [GS-1101/CAL-101/idelalisib]	rapidly normalize	–	–	–	–	–	–	–	–	–	–	–	–	–	–	–	–	–	–	–
C=CC(=O)N1CCC[C@@H](n2nc(-c3ccc(Oc4ccccc4)cc3)c3c(N)ncnc32)C1 [ibrutinib, 1-((R)-3-(4-amino-3-(4-phenoxyphenyl)-1H-pyrazolo[3,4-d]pyrimidin-1-yl)piperidin-1-yl)prop-2-en-1-one]	–	did not respond; also recorded: unaffected	did not respond; also recorded: unaffected	313.2 (±6.8) pg/mL	2029.16 (±26.9) pg/mL	abrogated; also recorded: significantly decreased	abrogated; also recorded: significantly decreased	500	500	sensitive to inhibition; also recorded: significant decrease	sensitive to inhibition; also recorded: significant decrease	did not respond; also recorded: unaffected	did not respond; also recorded: unaffected	did not respond; also recorded: unaffected	did not respond; also recorded: unaffected	abrogated; also recorded: significantly decreased	abrogated; also recorded: significantly decreased	decreased	decreased	returned to low levels
